In patent US8846933B2, “N-link hydroxamic acid derivatives useful as antibacterial agents” (Pfizer Inc., priority 2009, dated 2014):

Tests used:
[1] = system: Pseudomonas aeruginosa UI-18: Wild-type (PA-7); experiment: MIC determination (CLSI), strain PA-7; assay type: cell-based; settings: strain PA-7, unit assumed
Protocol: (§1) The in vitro antibacterial activity of compounds described in the Examples was evaluated by minimum inhibitory concentration (MIC) testing according to Clinical and Laboratory Standards Institute (CLSI, formerly NCCLS) guidelines. See: Clinical and Laboratory Standards Institute. Methods for Dilution Antimicrobial Susceptibility Tests for Bacteria that Grow Aerobically; Approved Standard-Seventh Edition. CLSI document M7-A7 [ISBN 1-56238-587-9]. Clinical and Laboratory Standards Institute, 940 West Valley Road, Suite 1400, Wayne, Pa. 19087-1898 USA, 2006; also Clinical and Laboratory Standards Institute. Performance Standards for Antimicrobial Susceptibility Testing; Eighteenth Informational Supplement. CLSI document M100-S18 [ISBN1-56238-653-0].Clinical and Laboratory Standards Institute.
(§2) The following bacterial strains were used in these MIC determinations:
1) Pseudomonas aeruginosa UI-18: Wild-type, labeled as PA-7 in Tables 4, and 5;

[2] = system: Escherichia coli EC-1: VOGEL, mouse virulent; experiment: MIC determination (CLSI), strain EC-1; assay type: cell-based; settings: strain EC-1, unit assumed
Protocol: as §1, §2
3) Escherichia coli EC-1: VOGEL, mouse virulent labeled as EC-1 in Tables 4 and 5;

[3] = generated in the same manner as in Table 4

SMILES | PA-7 (MIC) [1] [µg/mL] | EC-1 (MIC) [2] [µg/mL] | PA-7 (MIC) [1, 3] [µg/mL] | EC-1 (MIC) [2, 3] [µg/mL]
CN(C)c1ncc(-c2ccc(-c3ccn(CC[C@](C)(C(=O)NO)S(C)(=O)=O)c(=O)c3)cc2)cn1 [Example 409, (2R)-4-[4-{4-[2-(dimethylamino)pyrimidin-5-yl]phenyl}-2-oxopyridin-1(2H)-yl]-N-hydroxy-2-methyl-2-(methylsulfonyl)butanamide] | 2 | 0.5 |  | 
COc1ccc(-c2ccn(CCC(C)(C(=O)NO)S(C)(=O)=O)c(=O)c2)c(OC)c1 (stereo not shown) [Example 161, 4-[4-(2,4-dimethoxyphenyl)-2-oxopyridin-1(2H)-yl]-N-hydroxy-2-methyl-2-(methylsulfonyl)butanamide] |  |  | 8 | 8
C[C@H](O)c1ccc2cc(-c3ccn(CC[C@](C)(C(=O)NO)S(C)(=O)=O)c(=O)c3)ccc2c1 [Example 360, (2R)-N-hydroxy-4-[4-{6-[(1S)-1-hydroxyethyl]-2-naphthyl}-2-oxopyridin-1(2H)-yl]-2-methyl-2-(methylsulfonyl)butanamide] | 1 | 0.5 |  | 
COc1ccc(-c2ccn(CCC(C)(C(=O)NO)S(C)(=O)=O)c(=O)c2)cc1 (stereo not shown) [Example 170, N-hydroxy-4-[4-(4-methoxyphenyl)-2-oxopyridin-1(2H)-yl]-2-methyl-2-(methylsulfonyl)butanamide] |  |  | 1 | 1
COc1ccc(-c2ccn(CC[C@](C)(C(=O)NO)S(C)(=O)=O)c(=O)c2C)cc1 [Example 397, (2R)-N-hydroxy-4-[4-(4-methoxyphenyl)-3-methyl-2-oxopyridin-1(2H)-yl]-2-methyl-2-(methylsulfonyl)butanamide] | 1 | 0.25 |  | 
Cc1cc(-c2ccn(CCC(C)(C(=O)NO)S(C)(=O)=O)c(=O)c2)ccc1OCCCn1cncn1 (stereo not shown) [Example 293, N-hydroxy-2-methyl-2-(methylsulfonyl)-4-[4-{3-methyl-4-[3-(1H-1,2,4-triazol-1-yl)propoxy]phenyl}-2-oxopyridin-1(2H)-yl]butanamide] | 16 | 4 |  | 
Cc1cc2cc(-c3ccn(CCC(C)(C(=O)NO)S(C)(=O)=O)c(=O)c3)ccc2[nH]1 (stereo not shown) [Example 256, N-hydroxy-2-methyl-4-[4-(2-methyl-1H-indol-5-yl)-2-oxopyridin-1(2H)-yl]-2-(methylsulfonyl)butanamide] | 4 | 1 |  | 
C[C@@](CCn1ccc(-c2ccc(Oc3ncccc3C#N)cc2)cc1=O)(C(=O)NO)S(C)(=O)=O [Example 427, (2R)-4-[4-{4-[(3-cyanopyridin-2-yl)oxy]phenyl}-2-oxopyridin-1(2H)-yl]-N-hydroxy-2-methyl-2-(methylsulfonyl)butanamide] | 2 | 2 |  | 
CC(CCn1ccc(-c2cc3nccc(Cl)c3s2)cc1=O)(C(=O)NO)S(C)(=O)=O (stereo not shown) [Example 128, 4-[4-(7-chlorothieno[3,2-b]pyridin-2-yl)-2-oxopyridin-1(2H)-yl]-N-hydroxy-2-methyl-2-(methylsulfonyl)butanamide] |  |  | 64 | 32
CC(C)Oc1ccc(-c2ccn(CC[C@](C)(C(=O)NO)S(C)(=O)=O)c(=O)c2)cc1 [Example 390, (2R)-N-hydroxy-4-[4-(4-isopropoxyphenyl)-2-oxopyridin-1(2H)-yl]-2-methyl-2-(methylsulfonyl)butanamide] | 0.5 | 0.25 |  | 
Cc1cccc(-c2ccn(CCC(C)(C(=O)NO)S(C)(=O)=O)c(=O)c2)c1C (stereo not shown) [Example 257, 4-[4-(2,3-dimethylphenyl)-2-oxopyridin-1(2H)-yl]-N-hydroxy-2-methyl-2-(methylsulfonyl)butanamide] | 2 | 4 |  | 
COc1ccc(-c2ccn(CCC(C)(C(=O)NO)S(C)(=O)=O)c(=O)c2)c(F)c1F (stereo not shown) [Example 123, 4-[4-(2,3-difluoro-4-methoxyphenyl)-2-oxopyridin-1(2H)-yl]-N-hydroxy-2-methyl-2-(methylsulfonyl)butanamide] |  |  | 2 | 2
CC(CCn1ccc(-c2ccccc2C#N)cc1=O)(C(=O)NO)S(C)(=O)=O (stereo not shown) [Example 132, 4-[4-(2-cyanophenyl)-2-oxopyridin-1(2H)-yl]-N-hydroxy-2-methyl-2-(methylsulfonyl)butanamide] |  |  | > 64 | > 64
CC(CCn1ccc(-c2cccc3cnccc23)cc1=O)(C(=O)NO)S(C)(=O)=O (stereo not shown) [Example 215, N-hydroxy-4-(4-isoquinolin-5-yl-2-oxopyridin-1(2H)-yl)-2-methyl-2-(methylsulfonyl)butanamide] | 64 | > 64 |  | 
Cn1ccnc1-c1cccc(-c2ccn(CCC(C)(C(=O)NO)S(C)(=O)=O)c(=O)c2)c1 (stereo not shown) [Example 172, N-hydroxy-2-methyl-4-{4-[3-(1-methyl-1H-imidazol-2-yl)phenyl]-2-oxopyridin-1(2H)-yl}-2-(methylsulfonyl)butanamide] |  |  | > 64 | > 64
CC(CCn1ccc(-c2ccc(OCc3cccnc3)cc2)cc1=O)(C(=O)NO)S(C)(=O)=O (stereo not shown) [Example 269, N-hydroxy-2-methyl-2-(methylsulfonyl)-4-{2-oxo-4-[4-(pyridin-3-ylmethoxy)phenyl]pyridin-1(2H)-yl}butanamide] | 2 | 0.5 |  | 
C[C@@](CCn1ccc(-c2ccc(-c3ccncn3)cc2)cc1=O)(C(=O)NO)S(C)(=O)=O [Example 400, (2R)-N-hydroxy-2-methyl-2-(methylsulfonyl)-4-[2-oxo-4-(4-pyrimidin-4-ylphenyl)pyridin-1(2H)-yl]butanamide] | 2 | 1 |  | 
CC(CCn1ccc(-c2ccc(OCCCc3cccnc3)cc2)cc1=O)(C(=O)NO)S(C)(=O)=O (stereo not shown) [Example 88] |  |  | 2 | 0.25
C[C@@](CCn1ccc(-c2ccc(SCCCCO)cc2)cc1=O)(C(=O)NO)S(C)(=O)=O [Example 319] | 1 | 0.25 |  | 
Cn1c(C#N)ccc1-c1ccn(CCC(C)(C(=O)NO)S(C)(=O)=O)c(=O)c1 (stereo not shown) [Example 194, 4-[4-(5-cyano-1-methyl-1H-pyrrol-2-yl)-2-oxopyridin-1(2H)-yl]-N-hydroxy-2-methyl-2-(methylsulfonyl)butanamide] | > 64 | > 64 |  | 
Cc1ccc(S(=O)(=O)N(C)C)cc1-c1ccn(CCC(C)(C(=O)NO)S(C)(=O)=O)c(=O)c1 (stereo not shown) [Example 160, 4-[4-{5-[(dimethylamino)sulfonyl]-2-methylphenyl}-2-oxopyridin-1(2H)-yl]-N-hydroxy-2-methyl-2-(methylsulfonyl)butanamide] |  |  | > 64 | > 64
CNC(=O)c1ccc(-c2ccn(CCC(C)(C(=O)NO)S(C)(=O)=O)c(=O)c2)cc1 (stereo not shown) [Example 188, 4-{1-[4-(hydroxyamino)-3-methyl-3-(methylsulfonyl)-4-oxobutyl]-2-oxo-1,2-dihydropyridin-4-yl}-N-methylbenzamide] | > 64 | > 64 |  | 
CC(CCn1ccc(-c2c[nH]c3ccccc23)cc1=O)(C(=O)NO)S(C)(=O)=O (stereo not shown) [Example 296, N-hydroxy-4-[4-(1H-indol-3-yl)-2-oxopyridin-1(2H)-yl]-2-methyl-2-(methylsulfonyl)butanamide] | 64 | 64 |  | 
COc1ccc(-c2ccn(CC[C@](C)(C(=O)NO)S(C)(=O)=O)c(=O)c2)c(Cl)c1 [Example 342, (2R)-4-[4-(2-chloro-4-methoxyphenyl)-2-oxopyridin-1(2H)-yl]-N-hydroxy-2-methyl-2-(methylsulfonyl)butanamide] | 0.5 | 0.5 |  | 
CCOc1ccc2cc(-c3ccn(CC[C@](C)(C(=O)NO)S(C)(=O)=O)c(=O)c3)ccc2n1 [Example 385, (2R)-4-[4-(2-ethoxyquinolin-6-yl)-2-oxopyridin-1(2H)-yl]-N-hydroxy-2-methyl-2-(methylsulfonyl)butanamide] | 0.5 | 0.06 |  | 
C[C@@](CCn1ccc(-c2ccc(-c3ccno3)cc2)cc1=O)(C(=O)NO)S(C)(=O)=O [Example 411, (2R)-N-hydroxy-4-[4-(4-isoxazol-5-ylphenyl)-2-oxopyridin-1(2H)-yl]-2-methyl-2-(methylsulfonyl)butanamide] | 0.5 | 0.5 |  | 
C[C@@](CCn1ccc(-c2ccc(-n3ccnn3)cc2)cc1=O)(C(=O)NO)S(C)(=O)=O [Example 364, (2R)-N-hydroxy-2-methyl-2-(methylsulfonyl)-4-{2-oxo-4-[4-(1H-1,2,3-triazol-1-yl)phenyl]pyridin-1(2H)-yl}butanamide] | 16 | 16 |  | 
COc1ccc(-c2ccn(CC[C@](C)(C(=O)NO)S(C)(=O)=O)c(=O)c2)cc1C [Example 346, (2R)-N-hydroxy-4-[4-(4-methoxy-3-methylphenyl)-2-oxopyridin-1(2H)-yl]-2-methyl-2-(methylsulfonyl)butanamide] | 0.5 | 0.5 |  | 
C[C@@](CCn1ccc(-c2ccc(-c3ccccn3)cc2)cc1=O)(C(=O)NO)S(C)(=O)=O [Example 374, (2R)-N-hydroxy-2-methyl-2-(methylsulfonyl)-4-[2-oxo-4-(4-pyridin-2-ylphenyl)pyridin-1(2H)-yl]butanamide] | 1 | 0.25 |  | 
